# Measured values reported in patent US8158656B2, “2-indolinone derivatives as multi-target protein kinase inhibitors and histone deacetylase inhibitors” (Shenzhen Chipscreen Biosciences Ltd., priority 2008, dated 2012).
# Experiments:
# [1] = system: Class I HDAC; experiment: P21 reporter assay in HeLa cells; format: cell-based, human; settings: for Class I HDAC (P21 reporter assay) % Max Resp of CS055 at 3 μM: relative to CS055 at 3 μM; for EC50: 24 hours
# Procedure: (§1) HDAC subtype selectivity inhibition assay of tested compounds was carried out by several reporter gene assays experiments. Briefly, HeLa cells were seeded in 96-well plates the day before transfection to give a confluence of 50-80%. Cells were transfected with one of reporter gene plasmid containing a promoter sequence or response element upstream of a luciferase gene construct using FuGene6 transfection reagent according to the manufacturer's instruction (Roche). The promoters or response elements including p21-promoter, gdf11-promoter, MEF-binding element (MEF2), Nur77-promoter were fused upstream to the luciferase gene reporter construct. For normalizing the transfection efficiency, a GFP expression plasmid was cotransfected. Cells were allowed to express protein for 24 hours followed by addition of individual compounds or the vehicle (DMSO). 24 hours later the cells were harvested, and the luciferase assay and GFP assay were performed using corresponding assay kits according to the manufacturer's instructions (Promega).
# [2] = system: HDAC4/5; experiment: MEF2 reporter assay in HeLa cells; format: cell-based, human; settings: for HDAC4/5 (MEF2 reporter assay) % Max Resp of CS055 at 3 μM: relative to CS055 at 3 μM; for EC50: 24 hours
# Procedure: as §1
# [3] = system: HeLa; experiment: Tumor cell proliferation (MTS), HeLa; format: cell-based; settings: Homo sapiens, 72 hours
# Procedure: (§2) Measurement of in vivo cell proliferation:
# (§3) Tumor cells were trypsinized and plated into 96-well plates at 3,000 per well and incubated in complete medium with 10% FBS for 24 hours. Compounds were added over a final concentration range of 100 μmol/L to 100 nmol/L in 0.1% DMSO and incubated for 72 hours in complete medium. The effects on proliferation were determined by addition of MTS reagent (Promega) according to the instruction, incubation for 2 hours at 37° C. in CO2 incubator, and record the absorbance at 490 nm using an ELISA plate reader.
# [4] = system: MCF7; experiment: Tumor cell proliferation (MTS), MCF7; format: cell-based; settings: Homo sapiens, MCF7, 72 hours
# Procedure: as §2, §3
GI50 [3] [µM],GI50 [4] [µM],EC50 [1] [µM],EC50 [2] [µM],Structure (SMILES),Class I HDAC (P21 reporter assay) % Max Resp of CS055 at 3 μM [1] [%],HDAC4/5 (MEF2 reporter assay) % Max Resp of CS055 at 3 μM [2] [%]
> 60,> 60,,,"Cc1[nH]c(/C=N/N=C2\C(=O)Nc3ccc(F)cc32)c(C)c1C(=O)NCCCNc1ccc(C(=O)Nc2ccc(F)cc2N)cn1 [Example 17, N-(2-amino-4-fluorophenyl)-6-(3-(2-(((5-fluoro-2-oxoindolin-3-ylidene)-hydrazono)methyl)-3,5-dimethyl-1H-pyrrole-4-carboxamido)propylamino)nicotinamide]",3.4,10.8
> 60,> 60,,,"Cc1[nH]c(/C=N/N=C2\C(=O)Nc3ccc(F)cc32)c(C)c1C(=O)NCCCCNc1ccc(C(=O)Nc2ccc(F)cc2N)cn1 [Example 20, N-(2-amino-4-fluorophenyl)-6-(4-(2-(((5-fluoro-2-oxoindolin-3-ylidene)-hydrazono)methyl)-3,5-dimethyl-1H-pyrrole-4-carboxamido)butylamino)nicotinamide]",2.8,16.3
> 60,> 60,,,"Cc1[nH]c(/C=C2\C(=O)Nc3ccc(F)cc32)c(C)c1C(=O)NCCCCNc1ccc(C(=O)Nc2ccc(F)cc2N)cn1 [Example 19, (Z)-N-(2-amino-4-fluorophenyl)-6-(4-(2-((5-fluoro-2-oxoindolin-3-ylidene)-methyl)-3,5-dimethyl-1H-pyrrole-4-carboxamido)butylamino)nicotinamide]",2.3,1.9
> 60,> 60,,,"Cc1[nH]c(/C=N/N=C2\C(=O)Nc3ccc(F)cc32)c(C)c1C(=O)NCCNc1ccc(C(=O)Nc2ccc(F)cc2N)cn1 [Example 14, N-(2-amino-4-fluorophenyl)-6-(2-(2-(((5-fluoro-2-oxoindolin-3-ylidene)-hydrazono)methyl)-3,5-dimethyl-1H-pyrrole-4-carboxamido)ethylamino)nicotinamide]",2.1,2.4
> 60,> 60,,,"Cc1[nH]c(/C=C2\C(=O)Nc3ccc(F)cc32)c(C)c1C(=O)NCCCNc1ccc(C(=O)Nc2ccc(F)cc2N)cn1 [Example 16, (Z)-N-(2-amino-4-fluorophenyl)-6-(3-(2-((5-fluoro-2-oxoindolin-3-ylidene)-methyl)-3,5-dimethyl-1H-pyrrole-4-carboxamido)propylamino)nicotinamide]",2.5,−0.2

# The remaining lines, values behind:
Structure (SMILES),GI50 [3] [µM],GI50 [4] [µM],EC50 [1] [µM],EC50 [2] [µM],Class I HDAC (P21 reporter assay) % Max Resp of CS055 at 3 μM [1] [%],HDAC4/5 (MEF2 reporter assay) % Max Resp of CS055 at 3 μM [2] [%]
"Cc1[nH]c(/C=C2\C(=O)Nc3ccc(F)cc32)c(C)c1C(=O)NCCNc1ccc(C(=O)Nc2ccc(F)cc2N)cn1 [Example 13, (Z)-N-(2-amino-4-fluorophenyl)-6-(2-(2-((5-fluoro-2-oxoindolin-3-ylidene)-methyl)-3,5-dimethyl-1H-pyrrole-4-carboxamido)ethylamino)nicotinamide]",> 60,> 60,,,2.1,0.5
"Cc1[nH]c(/C=C2\C(=O)Nc3ccc(F)cc32)c(C)c1C(=O)NCCNc1ccc(C(=O)Nc2ccccc2N)cn1 [Example 3, (Z)-N-(2-aminophenyl)-6-(2-(2-((5-fluoro-2-oxoindolin-3-ylidene)methyl)-3,5-dimethyl-1H-pyrrole-4-carboxamido)ethylamino)nicotinamide]",> 60,> 60,2.3,2.2,131.7,83.2
"Cc1[nH]c(/C=N/N=C2\C(=O)Nc3ccc(F)cc32)c(C)c1C(=O)NCCCNc1ccc(C(=O)Nc2ccccc2N)cn1 [Example 7, N-(2-aminophenyl)-6-(3-(2-(((5-fluoro-2-oxoindolin-3-ylidene)hydrazono)-methyl)-3,5-dimethyl-1H-pyrrole-4-carboxamido)propylamino)nicotinamide]",> 60,> 60,,,6.2,2.6
"Cc1[nH]c(/C=N/N=C2\C(=O)Nc3ccc(F)cc32)c(C)c1C(=O)NCCCCNc1ccc(C(=O)Nc2ccccc2N)cn1 [Example 10, N-(2-aminophenyl)-6-(4-(2-(((5-fluoro-2-oxoindolin-3-ylidene)hydrazono)-methyl)-3,5-dimethyl-1H-pyrrole-4-carboxamido)butylamino)nicotinamide]",> 60,> 60,,,7.3,12.8
"Cc1[nH]c(/C=N/N=C2\C(=O)Nc3ccc(F)cc32)c(C)c1C(=O)NCCNc1ccc(C(=O)Nc2ccccc2N)cn1 [Example 4, N-(2-aminophenyl)-6-(2-(2-(((5-fluoro-2-oxoindolin-3-ylidene)hydrazono)-methyl)-3,5-dimethyl-1H-pyrrole-4-carboxamido)ethylamino)nicotinamide]",> 60,> 60,,,3.3,4.9
"Cc1[nH]c(/C=C2\C(=O)Nc3ccc(F)cc32)c(C)c1C(=O)NCCCCNc1ccc(C(=O)Nc2ccccc2N)cn1 [Example 9, (Z)-N-(2-aminophenyl)-6-(4-(2-((5-fluoro-2-oxoindolin-3-ylidene)methyl)-3,5-dimethyl-1H-pyrrole-4-carboxamido)butylamino)nicotinamide]",> 60,> 60,13.4,20,89.1,53.6
"Cc1[nH]c(/C=C2\C(=O)Nc3ccc(F)cc32)c(C)c1C(=O)NCCCNc1ccc(C(=O)Nc2ccccc2N)cn1 [Example 6, (Z)-N-(2-aminophenyl)-6-(3-(2-((5-fluoro-2-oxoindolin-3-ylidene)methyl)-3,5-dimethyl-1H-pyrrole-4-carboxamido)propylamino)nicotinamide]",> 60,> 60,2.5,1,74.6,44.2
